The source of these data is publication PMC5303260, “Efficacy, safety and pharmacokinetics of simeprevir and TMC647055/ritonavir with or without ribavirin and JNJ-56914845 in HCV genotype 1 infection” (BMC Gastroenterology, 2017).

Where two headings read alike, the source gives them in different places.

Data set [1] concerns HCV NS5A. Conditions: all patients with virologic failure in Panel 4.
The next data set concerns HCV GT1, 4, 5 and 6a/6b. On the set-up: method as in PMID 24107072, PMID 24126581. The following applies: cited from earlier work.
Data set [2] relates to organic anion transporting polypeptide (OATP) 1B1/3. The following applies: cited from earlier work.
Data set [3] concerns HCV NS5A. On the set-up: method as in PMID 24126581. The following applies: L31M and Y93C (in combination with M28V), GT1a; cited from earlier work.
A further data set relates to cytochrome P450 (CYP) 3A. The following applies: cited from earlier work.
In another data set the test system is P-glycoprotein. Conditions: cited from earlier work.
In data set [4] the test system is breast cancer resistance protein. Conditions: cited from earlier work.
The conditions of data set [5]: cited from earlier work; for change in plasma concentrations on co-administration with JNJ-56914845: healthy volunteers, not considered clinically relevant.
Details of data set [6]: species or system human. Conditions: in vivo. The method, then:
Plasma pharmacokinetic samples for simeprevir, TMC647055, ritonavir and JNJ-56914845 were collected over 24 h (pre-dose, 1, 2, 3, 4, 5, 6, 8, 10, 12 and 24 h post-dose) at Week 4 from all patients and assayed using validated liquid chromatography-tandem mass spectrometry methods with lower limits of quantification for simeprevir, TMC647055, ritonavir and JNJ-56914845 of 5.0, 5.0, 2.0 and 1.0 ng/mL, respectively (data on file).
No formal sample size calculations were performed as this was a proof-of-concept study. For each efficacy endpoint, the proportion of patients was summarised descriptively together with a 95% confidence interval by treatment group and population. The change in log10 HCV RNA from baseline at all time points was calculated using descriptive statistics. Pharmacokinetic parameters were calculated using non-compartmental analysis (Phoenix WinNonlin® 6.2.1). All safety and tolerability data were summarised descriptively.

A further data set relates to HCV NS5B. As to the kind of experiment: Population-based sequencing at time of failure, NS5B region. On the set-up: species or system hepatitis C virus. The following applies: patients with virologic failure.
Data set [7] relates to HCV replicon with NS5B NNI-1 pocket polymorphisms. Kind of data set: In vitro susceptibility of site-directed mutant replicons (baseline NS5B polymorphisms). It counts as cell-based, hepatitis C virus. The following applies: NS5B polymorphisms observed at baseline (positions 37, 392, 424, 425, 494, 499) with site-directed mutagenesis data. The source says: NS5B polymorphisms were detected at baseline at the non-nucleoside inhibitor (NNI)-1 binding pocket positions 37, 392, 424, 425, 494 and/or 499 across all panels.

The test system of another data set is HCV GT1, 3, 4, 5 and 6. On the set-up: method as in PMID 24144360. Conditions: cited from earlier work.
In a further data set the test system is HCV NS3/4A. As to the kind of experiment: Population-based sequencing at time of failure, NS3/4A region. The arrangement: species or system hepatitis C virus.

For `COC(=O)N[C@H](C(=O)N1CCC[C@H]1c1ncc(-c2ccc(-c3ccc(-c4cnc([C@@H]5CC6(CN5C(=O)[C@@H](NC(=O)OC)C(C)C)OCCO6)[nH]4)cc3)cc2)[nH]1)C(C)C` [JNJ-56914845], in the data set with HCV NS5A [1], the “emerging RAVs at time of failure” value is given as “NS5A positions 30 and/or 31”. For the same compound, the “in vitro antiviral activity” value with HCV GT1, 4, 5 and 6a/6b is “in vitro antiviral activity against HCV GT1, 4, 5 and 6a/6b”. Besides, in data set [2] (in vitro, ref data on file), the OATP1B1/3 inhibition result is on record as “inhibits”. Moreover, in the data set on HCV NS5A [3], the “baseline NS5A polymorphisms and in vitro resistance” value is “associated with in vitro resistance”. In the data set on cytochrome P450 (CYP) 3A, the CYP3A substrate status result is on record as “substrate”. Besides, in the data set with P-glycoprotein, the P-glycoprotein inhibition entry is “inhibits” and the P-glycoprotein substrate status entry is on record as “substrate”. Moreover, the “breast cancer resistance protein inhibition” value in [4] is “inhibits”. The “increase in exposure (AUC0–24h) on co-administration of simeprevir” value in data set [5] (human, in vivo) is recorded as 2.6 fold.
Take `COc1ccc2c(c1)C=C1Cn3c-2c(C2CCCCC2)c2ccc(cc23)C(=O)NS(=O)(=O)N(C)CCOCCN(C)C1=O` [TMC647055]: in [6], the “differences in pharmacokinetics based on ribavirin use” value (“differences in pharmacokinetics based” for short) is reported as “No differences” and the “increase in exposure with dose” value is on record as “more than dose-proportional increase”. Further, the “resistance-associated variants (RAVs) observed at failure” value in the data set with HCV NS5B is “NS5B position 495 (mainly P495L)”. For the same compound, the “fold change in 50 % effective concentration compared to wild-type replicon” value in data set [7] is on record as less than 2. Further, in the data set on HCV GT1, 3, 4, 5 and 6, the “in vitro antiviral activity” value was “in vitro antiviral activity against HCV GT1, 3, 4, 5 and 6”. Further, the “change in plasma concentrations on co-administration with JNJ-56914845” value in data set [5] was “small increases”.
For `CC(C)c1nc(CN(C)C(=O)N[C@H](C(=O)N[C@@H](Cc2ccccc2)C[C@H](O)[C@H](Cc2ccccc2)NC(=O)OCc2cncs2)C(C)C)cs1` [ritonavir], the “differences in pharmacokinetics based” value in [6] was “No differences”.
Regarding `COc1ccc2c(O[C@@H]3C[C@H]4C(=O)N[C@]5(C(=O)NS(=O)(=O)C6CC6)C[C@H]5/C=C\CCCCN(C)C(=O)[C@@H]4C3)cc(-c3nc(C(C)C)cs3)nc2c1C` [simeprevir], in [6], the “differences in pharmacokinetics based” value was “No differences” and the “exposure compared with historical data for simeprevir 150 mg once daily” value is given as “within the range observed in historical data”. For the same compound, in the data set with HCV NS3/4A (GT1a-infected patients with virologic failure (R155K alone or with Q80R; R155S)), the “emerging NS3 mutations at time of failure” value is “NS3 position 155”. The “emerging NS3 mutation at time of failure” value with HCV NS3/4A (most GT1b-infected patients with virologic failure) is on record as “NS3 position 168”. For the same compound, the OATP1B1/3 inhibition result in data set [2] is reported as “inhibits”. For the same compound, the “CYP3A substrate / inhibitor status” value in the data set with cytochrome P450 (CYP) 3A was “substrate and mild inhibitor (intestinal only)”. Besides, the P-glycoprotein inhibition entry in the data set with P-glycoprotein is given as “inhibits”. The “change in plasma concentrations on co-administration with JNJ-56914845” value in data set [5] was “small increases”.
